In patent publication EP0048613B1, “4-0-Substituted -2-deoxystreptamine aminoglycoside derivatives, their preparation and formulations containing them” (ELI LILLY AND COMPANY, priority 1980, dated 1982):

tested on: B. subtilis X12; assay: Bioautography of thin layer chromatography plate; type: cell-based; conditions: bioautography of TLC plate of the reaction mixture against B. subtilis X12
Method: Apramycin (54 mg, 0.1 mmol) was dissolved in water (1 ml). Nickel acetate tetrahydrate (100 mg, 0.4 mmol) was added and this solution was diluted with dimethylformamide (5 mi). The mixture was treated with 1-iodo-n-butane (0.115 ml, 1 mmol) and this reaction mixture was stirred at room temperature for 4 days.

Substance | zone of inhibition
2'-N-(n-Butyl)apramycin [Example 6] | a zone of inhibition
2'-N-Allylapramycin [Example 8] | a good zone of inhibition
2'-N-Benzylapramycin [Example 7] | a zone of inhibition
